Test results taken from patent publication US6495588B2, “Scytonemin and methods of using thereof” (The Regents of the University of California, priority 2000, dated 2002).

What was measured:
GST-Myt1 = biological target: T1, GST-Myt1 (Homo sapiens, UniProt Q99640); test: GST-Myt1 autophosphorylation DELFIA assay; assay type: biochemical; settings: 1 μM ATP
T1 construct: The Myt1 gene was truncated after amino acid 379 and just prior to the membrane-anchoring domain; made in house; host or cells: Sf9 (baculovirus, pFASTBAC)
T1 sequence (Q99640 1-379): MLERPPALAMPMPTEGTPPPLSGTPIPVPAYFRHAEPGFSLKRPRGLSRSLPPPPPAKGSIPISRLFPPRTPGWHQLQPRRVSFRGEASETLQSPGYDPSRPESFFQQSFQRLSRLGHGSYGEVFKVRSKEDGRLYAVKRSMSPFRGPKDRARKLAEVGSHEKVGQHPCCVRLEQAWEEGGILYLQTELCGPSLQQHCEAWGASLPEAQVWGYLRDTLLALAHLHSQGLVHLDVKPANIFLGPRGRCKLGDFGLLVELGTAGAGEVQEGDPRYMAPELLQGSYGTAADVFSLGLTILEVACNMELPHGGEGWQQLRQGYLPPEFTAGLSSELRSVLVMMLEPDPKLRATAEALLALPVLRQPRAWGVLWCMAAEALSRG
Text: To determine the effect of SCY on GST-Myt1 activity, a rh-GST-Myt1 expression vector was constructed to include gst fused to the amino terminus of a truncated human Myt1 gene via a linker comprising a thrombin cleavage site. The Myt1 gene was truncated after amino acid 379 and just prior to the membrane-anchoring domain. The construct was cloned into the baculovirus expression system, pFASTBAC (Gibco-BRL, Gaithersburg, Md.).
Spodoptera frugiperda 9 (Sf9) cells were infected with the virus and grown for three days before purifying as described in Roshak et al. (2000) for GST-PLK1 and GST-cdc25C to 75% purity as determined by SDS-PAGE analysis and Coomassie Blue staining. Dissociative enhanced lanthanide fluorescence immunoassays (DELFIA) (Wallac OY, Turku, Finland) were performed in 50 μl/well with 0.25 μg GST-Myt1, in reaction buffer (50 mM HEPES, pH 7.4, 2 mM Mn(OAc)2, 1 μM ATP, 1 mM DTT (final reaction concentrations)), and SCY (1 nM to 10 μM final reaction concentration). […]
Reactions were allowed to proceed at room temperature with shaking for 20 minutes and were stopped with the addition of EDTA to give a final concentration of 20 mM, and the protein was allowed to bind to the wells for an additional 40 minutes. […] The plate was then read on the 1420 VICTOR plate counter from Wallac, Inc.

Jurkat T cells = test: Apoptosis assay (TUNEL, flow cytometry); assay type: cell-based; settings: 3 μM, 24 hours
Method: To determine the mechanism behind the ability of SCY to inhibit cell proliferation, about 2×10^5 Jurkat T cells/ml were treated with vehicle (negative control), 3 μM SCY, or 3 μM camptothecin (positive control) a (0.1% DMSO[final]) and incubated at 37° C., 5% CO2 for 24 hours. As a positive control, camptothecin, a DNA topoisomerase inhibitor, was used because of its ability to arrest Jurkat cells at the G2/M phase of the cell cycle and induce the cells to undergo apoptosis. The cells were fixed in 1% paraformaldehyde, washed once with PBS, and stored in 70% EtOH at−20° C. Apoptosis was measured using the Promega Apoptosis Detection System (Promega, Madison, Wis.) an adapted TUNEL staining method.
The cells were washed two times with 5 ml PBS 2% FBS, then transferred to a microcentrifuge tube in 1 ml PBS, 0.2% Triton×100, 5 mg/ml BSA and incubated on ice for 5 minutes. Samples were spun, PBS solution removed, then resuspended in 80 μl equilibration buffer from Promega kit and incubated at room temperature for 10 minutes. Then the samples were spun and the equilibration buffer removed. A nucleotide mix comprising 45 μl equilibration buffer, 5 μl nucleotide mix, 1 μl Tdt enzyme per sample, was used to resuspend each sample in the dark. The cells were incubated in the dark at 37° C. for 1 hour. The reaction was terminated by the addition of 20 mM EDTA. The samples were washed twice with 1 ml RNAse A and a small aliquot, about 50 μl, was viewed under a microscope. Cells were stained with fluoroscein and then counterstained with propidium iodide and analyzed for DNA content and fragmentation using a Becton-Dickinson FacsSort (Becton-Dickinson, San Jose, Calif.).

[1] = test system: tissue myeloperoxidase activity; test: Myeloperoxidase (MPO) enzyme assay of mouse ear biopsies; assay type: in vivo; settings: topical
Text: To determine neutrophil influx into inflammed tissue region, the following assay may be conducted. Generally, myeloperoxidase (MPO), a neutrophil-specific marker released from primary granules, is indicative of the extravasation of pro-inflammation neutrophils from blood into the skin. Thus, to determine whether a test compound prevents, inhibits, modulates or attenuates inflammation related to an immunogenic inflammatory pathway or neutrophil influx, ear biopsies from treated and untreated mouse ears may be extracted and quantitated according to a modified method of Bradley, P.O., et al. (1982) J. Invest Dermatology 78:206-209, which is herein incorporated by reference. Specifically, ear bores from each treatment group from mouse ear edema assays from part A above were pooled and homogenized in 80 mM sodium phosphate buffer (pH 5.4) comprising 0.5% hexadecyltrimethylammonium bromide in a siliconized glass test tube for 1 minute at 0° C. using a Brinkman Polytron. The mixtures were centrifuged at 10,000×g at 4° C. for 30 minutes. 10 μl samples from each group were then assayed in a 96-well microtiter plate. The assay was initiated by adding 250 μl of o-dianisi-dine/phosphate reagent (0.28 mg of dianisidine added to 1 ml of 50 mM sodium phosphate comprising 0.0015 H2O2) to each well. After a 30 minute incubation at 37° C., the plates were read at 450 nm on a Molecular Devices microplate reader. Diluted control biopsies were utilized to develop a standard curve. Optical density values from drug-treated groups were compared to control groups to determine the % of control values of enzyme activity.

scytonemin
IC50 (GST-Myt1): ~1000 nM | effect on cell cycle progression (Jurkat T cells): did not have any cell cycle specific effect | induction of apoptosis (DNA fragmentation) (Jurkat T cells): cause the cells to undergo apoptosis in all phases of the cell cycle | inhibition of MPO activity ([1]; 1 μg scytonemin): about 19% | inhibition of MPO activity ([1]; 5 μg scytonemin): ~18% | inhibition of MPO activity ([1]; 10 μg scytonemin (fourth dose listed)): ~90% | inhibition of MPO activity ([1]; 10 μg scytonemin (third dose listed)): ~68%
